In patent US10206394B2, “Herbicidal compounds” (Syngenta Participations AG, priority 2014, dated 2019):
Like-named read-outs stand apart in the source and are kept apart here.

Key:
Assay in all cases: Glasshouse assay for herbicidal activity (pre- and post-emergence), percentage phytotoxicity
Assay type in all cases: in vivo
Avena fatua (AVEFA) = conditions: Avena fatua
Procedure, shortened: (§1)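 Seeds were sown in standard soil in pots and grown one day (pre-emergence) or about 12 days (post-emergence) before herbicide application. Plants were kept at 24/18 °C (warm-climate) or 20/16 °C (cool-climate) day/night, 16 h light, 65% humidity, watered twice daily, and damage was scored visually at 15 DAA (POST) or 20 DAA (PRE).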

Lolium perenne (LOLPE) = conditions: Lolium perenne
Procedure, shortened: as §1

[1] = tested on: Alopecurus myosuroides (ALOMY); conditions: Alopecurus myosuroides
Procedure, shortened: as §1

[2] = tested on: Echinochloa crus-galli (ECHCG); conditions: Echinochloa crus-galli
Procedure, shortened: as §1

[3] = post-emergence, 360 h, 250 g/ha, post-emergence, 15 DAA, visual assessment (100%=total damage, 0%=no damage), read-out: Post-emergence herbicidal activity (percentage phytotoxicity) AVEFA POST
[4] = pre-emergence, 480 h, 250 g/ha, pre-emergence, 20 DAA, visual assessment (100%=total damage, 0%=no damage), read-out: Pre-emergence herbicidal activity (percentage phytotoxicity) AVEFA PRE
[5] = post-emergence, 360 h, 250 g/ha, post-emergence, 15 DAA, visual assessment (100%=total damage, 0%=no damage), read-out: Post-emergence herbicidal activity (percentage phytotoxicity) LOLPE POST
[6] = pre-emergence, 480 h, 250 g/ha, pre-emergence, 20 DAA, visual assessment (100%=total damage, 0%=no damage), read-out: Pre-emergence herbicidal activity (percentage phytotoxicity) LOLPE PRE
[7] = post-emergence, 360 h, 250 g/ha, post-emergence, 15 DAA, visual assessment (100%=total damage, 0%=no damage), read-out: Post-emergence herbicidal activity (percentage phytotoxicity) ALOMY POST
[8] = pre-emergence, 480 h, 250 g/ha, pre-emergence, 20 DAA, visual assessment (100%=total damage, 0%=no damage), read-out: Pre-emergence herbicidal activity (percentage phytotoxicity) ALOMY PRE
[9] = post-emergence, 360 h, 250 g/ha, post-emergence, 15 DAA, visual assessment (100%=total damage, 0%=no damage), read-out: Post-emergence herbicidal activity (percentage phytotoxicity) ECHCG POST
[10] = pre-emergence, 480 h, 250 g/ha, pre-emergence, 20 DAA, visual assessment (100%=total damage, 0%=no damage), read-out: Pre-emergence herbicidal activity (percentage phytotoxicity) ECHCG PRE
[11] = post-emergence, 360 h, POST-emergence, rate 250 g/ha, visual score 15 DAA (100%=total damage, 0%=no damage), read-out: Post-emergence herbicidal activity (percentage phytotoxicity) AVEFA POST
[12] = pre-emergence, 480 h, PRE-emergence, rate 250 g/ha, visual score 20 DAA (100%=total damage, 0%=no damage), read-out: Pre-emergence herbicidal activity (percentage phytotoxicity) AVEFA PRE
[13] = post-emergence, 360 h, POST-emergence, rate 250 g/ha, visual score 15 DAA (100%=total damage, 0%=no damage), read-out: Post-emergence herbicidal activity (percentage phytotoxicity) LOLPE POST
[14] = pre-emergence, 480 h, PRE-emergence, rate 250 g/ha, visual score 20 DAA (100%=total damage, 0%=no damage), read-out: Pre-emergence herbicidal activity (percentage phytotoxicity) LOLPE PRE
[15] = post-emergence, 360 h, POST-emergence, rate 250 g/ha, visual score 15 DAA (100%=total damage, 0%=no damage), read-out: Post-emergence herbicidal activity (percentage phytotoxicity) ALOMY POST
[16] = pre-emergence, 480 h, PRE-emergence, rate 250 g/ha, visual score 20 DAA (100%=total damage, 0%=no damage), read-out: Pre-emergence herbicidal activity (percentage phytotoxicity) ALOMY PRE
[17] = post-emergence, 360 h, POST-emergence, rate 250 g/ha, visual score 15 DAA (100%=total damage, 0%=no damage), read-out: Post-emergence herbicidal activity (percentage phytotoxicity) ECHCG POST
[18] = pre-emergence, 480 h, PRE-emergence, rate 250 g/ha, visual score 20 DAA (100%=total damage, 0%=no damage), read-out: Pre-emergence herbicidal activity (percentage phytotoxicity) ECHCG PRE
[19] = post-emergence, 360 h, Rate 250 g/ha, post-emergence, assessed visually 15 DAA, 100%=total damage, 0%=no damage, read-out: Post-emergence herbicidal activity (percentage phytotoxicity) AVEFA POST
[20] = pre-emergence, 480 h, Rate 250 g/ha, pre-emergence, assessed visually 20 DAA, 100%=total damage, 0%=no damage, read-out: Pre-emergence herbicidal activity (percentage phytotoxicity) AVEFA PRE
[21] = post-emergence, 360 h, Rate 250 g/ha, post-emergence, assessed visually 15 DAA, 100%=total damage, 0%=no damage, read-out: Post-emergence herbicidal activity (percentage phytotoxicity) LOLPE POST
[22] = pre-emergence, 480 h, Rate 250 g/ha, pre-emergence, assessed visually 20 DAA, 100%=total damage, 0%=no damage, read-out: Pre-emergence herbicidal activity (percentage phytotoxicity) LOLPE PRE
[23] = post-emergence, 360 h, Rate 250 g/ha, post-emergence, assessed visually 15 DAA, 100%=total damage, 0%=no damage, read-out: Post-emergence herbicidal activity (percentage phytotoxicity) ALOMY POST
[24] = pre-emergence, 480 h, Rate 250 g/ha, pre-emergence, assessed visually 20 DAA, 100%=total damage, 0%=no damage, read-out: Pre-emergence herbicidal activity (percentage phytotoxicity) ALOMY PRE
[25] = post-emergence, 360 h, Rate 250 g/ha, post-emergence, assessed visually 15 DAA, 100%=total damage, 0%=no damage, read-out: Post-emergence herbicidal activity (percentage phytotoxicity) ECHCG POST
[26] = pre-emergence, 480 h, Rate 250 g/ha, pre-emergence, assessed visually 20 DAA, 100%=total damage, 0%=no damage, read-out: Pre-emergence herbicidal activity (percentage phytotoxicity) ECHCG PRE

Compound	pest or weed control at 250 g/ha (Avena fatua (AVEFA); [3])	pest or weed control at 250 g/ha (Avena fatua (AVEFA); [4])	pest or weed control at 250 g/ha (Lolium perenne (LOLPE); [5])	pest or weed control at 250 g/ha (Lolium perenne (LOLPE); [6])	pest or weed control at 250 g/ha [1, 7]	pest or weed control at 250 g/ha [1, 8]	pest or weed control at 250 g/ha [2, 9]	pest or weed control at 250 g/ha [2, 10]	pest or weed control at 250 g/ha (Avena fatua (AVEFA); [11])	pest or weed control at 250 g/ha (Avena fatua (AVEFA); [12])	pest or weed control at 250 g/ha (Lolium perenne (LOLPE); [13])	pest or weed control at 250 g/ha (Lolium perenne (LOLPE); [14])	pest or weed control at 250 g/ha [1, 15]	pest or weed control at 250 g/ha [1, 16]	pest or weed control at 250 g/ha [2, 17]	pest or weed control at 250 g/ha [2, 18]	pest or weed control at 250 g/ha (Avena fatua (AVEFA); [19])	pest or weed control at 250 g/ha (Lolium perenne (LOLPE); [21])	pest or weed control at 250 g/ha [1, 23]	pest or weed control at 250 g/ha [2, 25]	other results
CCc1cccc(C)c1C1C(=O)CC(CC(=O)NC(C)(C)C)C1=O (centres unmarked) [Compound B149]	90%	80%	80%	90%	90%	90%	90%	100%	–	–	–	–	–	–	–	–	–	–	–	–	–
C/C=C/CNC(=O)CC1CC(=O)C(c2c(C)cc(Br)cc2C)C1=O (centres unmarked) [Compound B177]	–	–	–	–	–	–	–	–	80%	30%	80%	90%	80%	90%	90%	90%	–	–	–	–	–
Cc1cc(-c2ccc(C#N)cn2)cc(C)c1C1C(=O)CC(CC(=O)NCc2cccs2)C1=O (centres unmarked) [Compound A156]	–	–	–	–	–	–	–	–	–	–	–	–	–	–	–	–	80%	80%	70%	100%	pest or weed control at 250 g/ha (Avena fatua (AVEFA); [20]): 70%; pest or weed control at 250 g/ha (Lolium perenne (LOLPE); [22]): 80%; pest or weed control at 250 g/ha [1, 24]: 60%; pest or weed control at 250 g/ha [2, 26]: 100%
C#CCCNC(=O)CC1CC(=O)C(c2c(C)cc(C)cc2C)C1=O (centres unmarked) [Compound B37]	100%	90%	80%	100%	70%	70%	90%	90%	–	–	–	–	–	–	–	–	–	–	–	–	–
Cc1cc(C)c(C2C(=O)CC(CC(=O)NC(C)CC3CCCC3)C2=O)c(C)c1 (centres unmarked) [Compound B28]	60%	50%	50%	80%	50%	50%	70%	60%	–	–	–	–	–	–	–	–	–	–	–	–	–
C=CC(C)NC(=O)CC1CC(=O)C(c2c(C)cc(C)cc2C)C1=O (centres unmarked) [Compound B179]	–	–	–	–	–	–	–	–	80%	70%	90%	100%	90%	90%	100%	100%	–	–	–	–	–
CC#Cc1cc(C)c(C2C(=O)CC(CC(=O)NC(C)(C)C)C2=O)c(CC)c1 (centres unmarked) [Compound A48]	–	–	–	–	–	–	–	–	–	–	–	–	–	–	–	–	100%	100%	100%	100%	pest or weed control at 250 g/ha (Avena fatua (AVEFA); [20]): 90%; pest or weed control at 250 g/ha (Lolium perenne (LOLPE); [22]): 100%; pest or weed control at 250 g/ha [1, 24]: 100%; pest or weed control at 250 g/ha [2, 26]: 100%
C=CCNC(=O)CC1CC(=O)C(c2c(C)cc(-n3cc(Cl)cn3)cc2CC)C1=O (centres unmarked) [Compound B236]	–	–	–	–	–	–	–	–	100%	90%	100%	90%	100%	90%	100%	90%	–	–	–	–	–
Cc1cc(C)c(C2C(=O)CC(CC(=O)NC3CCC(C)CC3C)C2=O)c(C)c1 (centres unmarked) [Compound A103]	–	–	–	–	–	–	–	–	–	–	–	–	–	–	–	–	10%	20%	60%	20%	–
